Results on 11 molecules are retold here after ChEMBL document CHEMBL1201862, “PubChem BioAssay data set” (2004).

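Cultured in 96-well plates, cells were exposed to test compound for 48 hours across five concentrations. GI50 is the concentration that inhibits growth by half.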 Calls of active or inactive are those of the source. No stated cut-off is given here; in the data, active = GI50 up to about 1.1 µM and inactive = higher.

Some test systems named below: KM12; U-251; SK-MEL-28; KM-20L2; EKVX; OVCAR-3; SNB-19; NCI-H460; SN12C; 786-0; IGROV-1; HT-29; SW-620; HCT-116; ACHN; OVCAR-4; NCI/ADR-RES; A498; MDA-MB-231; T47D.
Experiment in all cases: NCI anticancer screen, dose series, 48 h

As for `O=C1NC2(C=Cc3c(ccc4ccccc34)O2)Oc2ccccc21` (stereo not given), the GI50 in the assay with KM12 was 5.18 µM (inactive); with U-251, 15 µM (inactive); in the assay on SK-MEL-28, 15.6 µM (inactive); in the assay with KM-20L2, 25.8 µM (inactive); with EKVX it was 21.1 µM (inactive); in the assay with OVCAR-3, 13.4 µM (inactive). The GI50 in the assay on SNB-19 is 20.7 µM (inactive); in the assay with NCI-H460, 27.2 µM (inactive); in the assay with SN12C, 17.4 µM (inactive); in the assay on 786-0, 19 µM (inactive); in the assay on IGROV-1, 28.1 µM (inactive); in the assay on HT-29 it was 11.3 µM (inactive). For the same molecule, the GI50 was 15 µM (inactive) in the assay with SW-620, 12.7 µM (inactive) with HCT-116, 18.7 µM (inactive) with ACHN and 19.1 µM (inactive) in the assay on OVCAR-4.

Take `COc1ccc2cc(-c3ccc(OC)c(OC)c3)c(=O)oc2c1`: the GI50 is > 100 µM (inactive) with KM12; 57.4 µM (inactive) with U-251; > 100 µM (inactive) in the assay on NCI/ADR-RES; 96.8 µM (inactive) in the assay with A498; > 100 µM (inactive) in the assay on SK-MEL-28; > 100 µM (inactive) in the assay with EKVX. The GI50 in the assay on OVCAR-3 is > 100 µM (inactive); in the assay with SNB-19, 40 µM (inactive); in the assay with MDA-MB-231, 48.6 µM (inactive); in the assay on NCI-H460, > 100 µM (inactive); with SN12C it was > 100 µM (inactive); with 786-0, 52 µM (inactive). The GI50 in the assay with IGROV-1, with HT-29, with SW-620, in the assay on T47D, in the assay with HCT-116 and in the assay with ACHN was > 100 µM (inactive) each time. The GI50 in the assay with OVCAR-4 is > 100 µM (inactive).

`C=C1C(=O)O[C@@H]2/C=C(C)/C=C\[C@@H]3O[C@@]3(C)C[C@@H](O)C12` (stereo not given in full): the GI50 in the assay with KM12 is 15.5 µM (inactive); with U-251, 17.8 µM (inactive); with NCI/ADR-RES, 4.51 µM (inactive); with A498 it was 15.8 µM (inactive); in the assay with SK-MEL-28 it was 19.9 µM (inactive); in the assay on EKVX, 3.89 µM (inactive). Also, the GI50 was 14.1 µM (inactive) in the assay with OVCAR-3; 17.5 µM (inactive) in the assay with SNB-19; > 10 µM (inactive) in the assay with MDA-MB-231; 28.9 µM (inactive) in the assay with NCI-H460; 13.4 µM (inactive) with SN12C; 8.69 µM (inactive) with 786-0. The GI50 in the assay on IGROV-1 was 13 µM (inactive); with HT-29, 10 µM (inactive); in the assay on SW-620, 4.02 µM (inactive); in the assay on T47D, 7.19 µM (inactive); in the assay with HCT-116 it was 8.13 µM (inactive); with ACHN, 5.24 µM (inactive). For the same molecule, in the assay with OVCAR-4, the GI50 is 16.3 µM (inactive).

Consider `O=C1c2ccccc2C(=O)N1C/C=N/NS(=O)(=O)c1ccc(F)cc1`, for which the GI50 in the assay with KM12, with U-251, in the assay with KM-20L2, in the assay on EKVX, in the assay with SNB-19 and in the assay on SN12C was > 100 µM (inactive) throughout. The GI50 with 786-0, in the assay with IGROV-1, in the assay on SW-620, with HCT-116, with ACHN and in the assay on OVCAR-4 was > 100 µM (inactive) in each case.

With `O=C1CCC(=O)N1CNc1cccc(NCN2C(=O)CCC2=O)c1`, the GI50 with KM12 was > 100 µM (inactive); in the assay on U-251 it was > 100 µM (inactive); in the assay on SK-MEL-28, > 100 µM (inactive); in the assay on KM-20L2, 11 µM (inactive); with EKVX, > 100 µM (inactive); in the assay on OVCAR-3, > 100 µM (inactive). The GI50 in the assay with SNB-19 is > 100 µM (inactive); in the assay with NCI-H460, > 100 µM (inactive); in the assay on SN12C it was > 100 µM (inactive); in the assay with 786-0, > 100 µM (inactive); in the assay on IGROV-1 it was 87.9 µM (inactive); with HT-29, > 100 µM (inactive). The GI50 in the assay on SW-620 was > 100 µM (inactive); with HCT-116, 64.3 µM (inactive); in the assay with ACHN, 71.4 µM (inactive); in the assay on OVCAR-4 it was > 100 µM (inactive).

Turning to `C=C(C)CCOC(c1ccccc1)(c1ccccc1)c1ccccc1`, the GI50 in the assay with KM12 is 48.6 µM (inactive); in the assay on U-251, 50 µM (inactive); in the assay on SK-MEL-28, 42.7 µM (inactive); with KM-20L2, 23.5 µM (inactive); in the assay with OVCAR-3, 64.4 µM (inactive); in the assay on SNB-19, > 100 µM (inactive). In addition, the GI50 with NCI-H460 is 29.1 µM (inactive); in the assay on SN12C, 69 µM (inactive); with 786-0 it was > 100 µM (inactive); with IGROV-1 it was > 100 µM (inactive); in the assay on HT-29, 22.3 µM (inactive); in the assay on SW-620, 82.4 µM (inactive). Also, the GI50 in the assay with HCT-116 was 18.7 µM (inactive); in the assay on ACHN it was 25.7 µM (inactive); in the assay with OVCAR-4, 34.7 µM (inactive).

Regarding `CN1CCCC(C(=O)OCC(=O)C2(O)CCC3C4CCC5=CC(=O)CCC5(C)C4C(O)CC32C)C1` (stereo not given), the GI50 was 25.2 µM (inactive) in the assay with KM12; 4.29 µM (inactive) in the assay with U-251; 20 µM (inactive) in the assay on NCI/ADR-RES; 16.4 µM (inactive) with A498; 17.7 µM (inactive) in the assay with SK-MEL-28; 17.1 µM (inactive) with EKVX. For the same molecule, the GI50 in the assay on OVCAR-3 was 17 µM (inactive); in the assay on SNB-19 it was 8.05 µM (inactive); with MDA-MB-231 it was 4.32 µM (inactive); in the assay with NCI-H460 it was 11.5 µM (inactive); with SN12C, 8.73 µM (inactive); in the assay on 786-0, 4.2 µM (inactive). Besides, the GI50 in the assay with IGROV-1 was 23.4 µM (inactive); with HT-29 it was 10.8 µM (inactive); in the assay with SW-620 it was 6.27 µM (inactive); in the assay with T47D it was 10.3 µM (inactive); with HCT-116 it was 8.97 µM (inactive); with ACHN it was 17.9 µM (inactive). The GI50 in the assay with OVCAR-4 is 13.4 µM (inactive).

`Cn1c(=O)c2c(ncn2CCCCn2ccnc2[N+](=O)[O-])n(C)c1=O`: the GI50 in the assay with KM12, with U-251, in the assay on SK-MEL-28, in the assay with KM-20L2, with EKVX and with OVCAR-3 was > 100 µM (inactive) in each case. The GI50 with SNB-19, in the assay with NCI-H460, with SN12C, in the assay with 786-0, in the assay on IGROV-1 and in the assay with HT-29 was > 100 µM (inactive) in each case. Also, the GI50 in the assay on SW-620, in the assay with HCT-116, in the assay with ACHN and in the assay on OVCAR-4 was > 100 µM (inactive) in each case.

Take `CC(=O)OC[C@]1(O)CC[C@@]23CC1C[C@@H]2CCC1C(C)(C)CCC[C@@]13C` (stereo not given in full): the GI50 in the assay on KM12 is 13 µM (inactive); with U-251, 14 µM (inactive); in the assay with SK-MEL-28, 14.8 µM (inactive); in the assay on KM-20L2, 17.3 µM (inactive); with OVCAR-3 it was 17.1 µM (inactive); in the assay with SNB-19, 14.5 µM (inactive). The GI50 in the assay with NCI-H460 is 14.7 µM (inactive); in the assay with SN12C, 12.2 µM (inactive); with 786-0 it was 17.3 µM (inactive); with IGROV-1 it was 19.7 µM (inactive); in the assay with HT-29, 13 µM (inactive); with SW-620, 10.7 µM (inactive). The GI50 in the assay with HCT-116 was 11.9 µM (inactive); with ACHN, 15.7 µM (inactive); with OVCAR-4 it was 15.9 µM (inactive).

In the case of `CC(=O)O[C@H]1C[C@H](O[C@H]2[C@@H](O)C[C@H](O[C@H]3[C@@H](O)C[C@H](O[C@H]4CC[C@@]5(C)[C@H](CC[C@@H]6[C@@H]5CC[C@]5(C)[C@@H](C7=CC(=O)OC7)CC[C@]65O)C4)O[C@@H]3C)O[C@@H]2C)O[C@H](C)[C@H]1O[C@@H]1O[C@H](CO)[C@@H](O)[C@H](O)[C@H]1O`, the GI50 in the assay on KM12 was 0.065 µM (active); in the assay with U-251, 0.032 µM (active); in the assay on NCI/ADR-RES it was < 0.0169 µM (active); in the assay on A498, 0.0269 µM (active); in the assay on SK-MEL-28, 0.136 µM (active); with EKVX, < 0.0148 µM (active). Besides, the GI50 in the assay with OVCAR-3 was < 0.01 µM (active); in the assay on SNB-19, 0.0658 µM (active); in the assay on MDA-MB-231 it was 0.256 µM (active); with NCI-H460, < 0.01 µM (active); with SN12C, 0.0243 µM (active); in the assay with 786-0 it was 0.0162 µM (active). Further, the GI50 in the assay with IGROV-1 is < 0.01 µM (active); in the assay on HT-29, 0.0144 µM (active); in the assay with SW-620, 0.0202 µM (active); with T47D it was 0.0387 µM (active); with HCT-116 it was < 0.01 µM (active); with ACHN, < 0.01 µM (active). In addition, the GI50 in the assay with OVCAR-4 is < 0.0179 µM (active).

For `CCCCC/C=C\C=C1\C(=O)C=C[C@@H]1C/C=C\CCCC(=O)O`, the GI50 in the assay with KM12 is 2.67 µM (inactive); with U-251, 2.48 µM (inactive); in the assay with NCI/ADR-RES it was 1.24 µM (inactive); in the assay on A498 it was 11.7 µM (inactive); in the assay on SK-MEL-28, 6.65 µM (inactive); in the assay with EKVX it was 1.9 µM (inactive). In addition, the GI50 was 2.9 µM (inactive) in the assay with OVCAR-3; 4.51 µM (inactive) in the assay with SNB-19; 9.2 µM (inactive) with MDA-MB-231; 6.04 µM (inactive) in the assay on NCI-H460; 2 µM (inactive) with SN12C; 3.21 µM (inactive) with 786-0. Further, the GI50 was 2.75 µM (inactive) in the assay on IGROV-1; 5.05 µM (inactive) in the assay on HT-29; 2.8 µM (inactive) in the assay with SW-620; 9.35 µM (inactive) in the assay on T47D; 1.23 µM (inactive) in the assay with HCT-116; 2.72 µM (inactive) with ACHN. Also, the GI50 with OVCAR-4 is 1.53 µM (inactive).
